The results in this text go back to US8334248B2, “Aqueous solution of olanexidine, method of preparing the aqueous solution, and disinfectant” (Otsuka Pharmaceutical Co., Ltd., priority 2003, dated 2012).

The nature of this data set: Solubility in water. It is filed as physicochemical. The text has this:
Olanexidine has very poor solubility in water, and hitherto known salts of olanexidine are also poorly soluble in water. […] Consequently, sufficient bactericidal activity cannot be expected of an aqueous solution merely having olanexidine dissolved therein, and moreover, depending on the conditions the olanexidine may precipitate out.

With `CCCCCCCCNC(=N)NC(=N)NCc1ccc(Cl)c(Cl)c1` [free olanexidine, 1-(3,4-dichlorobenzyl)-5-octylbiguanide], the “solubility in water relative to olanexidine hydrochloride” value (compared with less than 0.05% (W/V) of the hydrochloride) is given as “a further order of magnitude less than this”.

Turning to `CCCCCCCCN=C(N)NC(N)=NCc1ccc(Cl)c(Cl)c1.Cl` [olanexidine hydrochloride], the solubility in water entry (at 0° C.) is on record as “less than 0.05 % (W/V)”.
